{"source": "paper PMC7018803", "about": "“A randomized, placebo-controlled, phase 1 study to evaluate the effects of TAK-063 on ketamine-induced changes in fMRI BOLD signal in healthy subjects” (Psychopharmacology, 2019)", "key": {"[1]": {"test": "Pharmacokinetics of TAK-063 in plasma after single oral dose", "type": "in vivo, human", "text": "(§1) The Statistics Department at Takeda Development Center Americas, Inc., generated a randomization schedule before the start of the study, and this randomization schedule maintained the investigational drug blind. During randomization, subjects were assigned a four-digit randomization sequence that encoded assignment of subjects to the treatment schedule. Subjects were randomized to one of nine treatment schedules and received placebo + ketamine (regimen A) and two of the following three treatment regimens: 3 mg of TAK-063 + ketamine (regimen B), 30 mg of TAK-063 + ketamine (regimen C), and 300 mg of TAK-063 + ketamine (regimen D). […] Treatment sequences are presented in Online Resource Supplementary Table S1. The study consisted of multiple visits with a different treatment protocol on each visit. The visits were standardized and included a screening period (day − 28 to day − 2), check-in (day − 1), a treatment period (days 1), completion of treatment visit (day 2), and a follow-up visit (day 14 ± 3 days after last TAK-063 dose). After each treatment period, subjects stayed overnight at the study site for observation and were discharged on day 2. Each participant completed the study when they completed the follow-up visit after their last treatment2.\nSubjects checked in on day − 1 of each treatment period during which vital signs, electrocardiogram (ECG), and laboratory safety tests were repeated. On day 1 of each treatment period, subjects received a 3-, 10-, or 30-mg TAK-063 dose or placebo tablets. Participants then relaxed, slept, or watched movies while remaining in the research environment. Ketamine (0.12 mg/kg intravenous bolus over 60 s followed by a continuous infusion of 0.31 mg/kg/h over approximately 150 min) was administered 4 h after TAK-063 or placebo (Fig. 1). This ketamine dose was based on a previous study that achieved steady-state concentrations of 75 ng/mL and provided a robust BOLD signal with minimal psychotomimetic symptoms (De Simoni et al. [2013]). […]\nBlood samples were collected for the determination of TAK-063 and ketamine concentrations, and ketamine concentrations were used to verify intravenous delivery of ketamine. Blood samples for determination of TAK-063 concentration were collected at pre-dose and at 0.5, 2, 3, 4.5, 6, 8, 10, 12, and 24 h post dose. Blood samples for determination of ketamine concentration were collected at 0.5, 1, 2, and 2.5 h after administration of ketamine. The target ketamine concentration was established at 75 ng/mL. PK samples were not collected from the arm in which ketamine was administered.\nThis study was not powered for any comparison, and the number of subjects was considered to be suitable for fulfilling study objectives. All statistical tests were two-tailed at α = 0.05 level of significance. For the analysis of the neuroimaging battery test results, effect sizes of > 0.3 were considered potentially meaningful, even without power to detect statistical significance. PK parameters of TAK-063 were generated using WinNonlin Version 6.3. fMRI images were analyzed using SPM8 and Matlab. Percent signal change for resting state data was calculated between pre-ketamine and post-ketamine infusion based on a priori ROIs using SPM’s Anatomy Toolbox (Yurgelun-Todd et al. [2016]). Percent signal change for the working memory task was calculated for the task versus baseline in the post-ketamine condition using the same ROI used for resting state (Yurgelun-Todd et al. [2016]). An analysis of variance (ANOVA) model was used to perform the analyses for BOLD signal changes (Yurgelun-Todd et al. [2016]). Cohen’s d effect sizes were calculated as d=μt^−μp^/sp where d is the effect size and μt^ and μp^ are the least-square means for a TAK-063 dose and placebo regimen, respectively, from the ANOVA model. sp is the pooled standard deviation from both regimens. No adjustments were made for multiple comparisons."}, "healthy male subjects": {"tested_on": "healthy male subjects", "test": "Safety assessments (adverse events, laboratory tests, ECG, vital signs)", "type": "in vivo, human", "text": "as §1\nAEs, clinical laboratory results, ECG, vital signs, and suicide assessments were recorded after administration of TAK-063 and throughout the remainder of the study. Intensity of AEs was classified as mild, moderate, and severe, and each AE was assessed for association with study drug. AEs were assessed throughout the 2-day study visit, at the three treatment visits, at the study exit, and at the follow-up visit. ECG, vital signs, and clinical laboratory results were assessed at visit 1 during screening, day − 1, day 1 of each treatment period, day 2 of period 3 (study exit), the early termination visit, and the follow-up visit.\nIn this study, the safety set, used for demographic and safety evaluations, included subjects who receive at least one dose of study medication. The PK set included all subjects in the safety set with at least one available drug concentration measurement. The PD set included all subjects in the safety set and with at least one valid PD assessment."}, "rats": {"tested_on": "rats", "parameters": "method as in Suzuki et al. [2016]", "conditions": "ref Suzuki et al. [2016]; cited from earlier work"}, "[2]": {"tested_on": "rodent models of cognitive impairment", "parameters": "method as in Shiraishi et al. [2016]", "conditions": "ref Shiraishi et al. [2016]; cited from earlier work"}, "[3]": {"tested_on": "individuals with schizophrenia", "parameters": "method as in Macek et al. [2017]", "conditions": "20 mg; 6-week phase 2 study; ref Macek et al. [2017]; cited from earlier work"}, "[4]": {"tested_on": "phosphodiesterase 10A (PDE10A)", "parameters": "method as in Seeger et al. [2003]; Suzuki et al. [2015]", "conditions": "ref Seeger et al. [2003]; Suzuki et al. [2015]; cited from earlier work"}, "[5]": {"conditions": "all 27 subjects, TAK-063 or placebo followed by ketamine"}, "[6]": {"conditions": "all subjects, most frequently reported AEs"}}}
{"smiles": "COc1cn(-c2ccc(-n3cccn3)cc2F)nc(-c2ccnn2-c2ccccc2)c1=O", "note": "[TAK-063]", "values": [{"measurement": "AUC24", "setting": "[1]; 3 mg single oral dose", "value": 111.3, "unit": "ng·h/mL"}, {"measurement": "Average concentration (Cav)", "setting": "[1]; 3 mg single oral dose", "value": 4.63, "unit": "ng/mL"}, {"measurement": "AUC24", "setting": "[1]; 10 mg single oral dose", "value": 549.2, "unit": "ng·h/mL"}, {"measurement": "Average concentration (Cav)", "setting": "[1]; 10 mg single oral dose", "value": 22.9, "unit": "ng/mL"}, {"measurement": "AUC24", "setting": "[1]; 30 mg single oral dose", "value": 1296.3, "unit": "ng·h/mL"}, {"measurement": "Average concentration (Cav)", "setting": "[1]; 30 mg single oral dose", "value": 53.9, "unit": "ng/mL"}, {"measurement": "rate of absorption", "setting": "[1]; oral administration", "value": "moderate"}, {"measurement": "Decline of plasma concentrations after Cmax", "setting": "[1]; single oral dose", "value": "declined in a biphasic manner"}, {"measurement": "EPS-type AE in one subject", "setting": "healthy male subjects; 30 mg", "value": "restlessness"}, {"measurement": "EPS-type AE in one subject", "setting": "healthy male subjects; 300 mg", "value": "muscle tightness and restlessness"}, {"measurement": "discontinuation because of EPS", "setting": "healthy male subjects; 300 mg", "value": "One subject"}, {"measurement": "tolerability of the 300-mg dose", "setting": "healthy male subjects; 300 mg, led to change of dose to 10 mg", "value": "higher than expected rates of dystonia and nausea"}, {"measurement": "subjects with AEs consistent with extrapyramidal symptoms (EPS)", "setting": "healthy male subjects; TAK-063 group overall", "value": 8.0, "unit": "%"}, {"measurement": "subjects with AEs consistent with extrapyramidal symptoms (EPS) (number)", "setting": "healthy male subjects; TAK-063 group overall", "value": "two"}, {"measurement": "subjects who experienced AEs related to the study drug", "setting": "healthy male subjects; [5]", "value": 88.9, "unit": "%"}, {"measurement": "subjects who experienced AEs related to the study drug (number)", "setting": "healthy male subjects; [5]", "value": 24, "unit": "subjects"}, {"measurement": "severity of drug-related AEs", "setting": "healthy male subjects; all subjects", "value": "mild to moderate"}, {"measurement": "fatigue", "setting": "healthy male subjects; [6]", "value": 25.9, "unit": "%"}, {"measurement": "nausea", "setting": "healthy male subjects; [6]", "value": 40.7, "unit": "%"}, {"measurement": "somnolence", "setting": "healthy male subjects; [6]", "value": 40.7, "unit": "%"}, {"measurement": "vomiting", "setting": "healthy male subjects; [6]", "value": 63.0, "unit": "%"}, {"measurement": "clinically significant changes from baseline in vital signs, clinical laboratory tests and 12-lead ECGs", "setting": "healthy male subjects; baseline to post dose", "value": "No changes"}, {"measurement": "deaths or serious AEs", "setting": "healthy male subjects; during the study", "value": "No deaths or serious AEs"}, {"measurement": "participants discontinuing study drug because of AEs", "setting": "healthy male subjects; in vivo", "value": "one"}, {"measurement": "overall safety and tolerability", "setting": "healthy male subjects; single oral doses with ketamine", "value": "safe and well tolerated"}, {"measurement": "MK-801-induced effects on hyperactivity", "setting": "rats", "value": "reversed"}, {"measurement": "MK-801 and phencyclidine-induced effects on spatial working memory, attentional set-shifting, and executive function", "setting": "[2]", "value": "reversed"}, {"measurement": "change from baseline in PANSS score at week 6 vs placebo (primary endpoint)", "setting": "[3]", "value": "did not meet its primary endpoint"}, {"measurement": "PDE10A inhibition", "setting": "[4]", "value": "selective inhibitor"}]}
